Experimental data published in patent US20220023381A1, “VDAC INHIBITORS FOR TREATING AUTOIMMUNE DISEASES” (NATIONAL INSTITUTE FOR BIOTECHNOLOGY IN THE NEGEV LTD., priority 2018, published 2022).

Key:
EndoG−/− MEFs [1] = assay: ISG expression in EndoG−/− MEFs (real-time PCR / western blot); format: cell-based, mouse; conditions: VBIT-4 (10 μM), real-time PCR
Protocol: All MEFs were grown in complete Dulbecco's modified Eagle's medium (DMEM, Corning) supplemented with 10% fetal bovine serum (FBS, Sigma-Aldrich) and 1% penicillin and streptomycin (antibiotics, Gibco) at 37° C. with 5% CO2.
Total RNA was extracted using RNeasy Plus Mini Kit (Qiagen) according to the manufacturer's instructions. The first-strand cDNA was synthesized from 2 μg purified mRNA using Accupower RT PreMix (BioNeer). The reaction mixtures were incubated at 42° C. for 60 min and 94° C. for 5 min. Real-time RT-PCR was performed using the LightCycler 96 system (Roche Life Science) with SYBR Green master mix (Roche). The primers used were as follow (5′-3′): EndoG forward (SEQ ID NO:36), and reverse (SEQ ID NO:37); Cxcl10 forward (SEQ ID NO:38), and reverse (SEQ ID NO:39); GAPDH forward (SEQ ID NO:40), and reverse (SEQ ID NO:41); Ifi44 forward (SEQ ID NO:42), and reverse (SEQ ID NO:43); Ifit1 forward (SEQ ID NO:44), and reverse (SEQ ID NO:45); Ifit3 forward (SEQ ID NO:46), and reverse (SEQ ID NO:47); IFNα4 forward (SEQ ID NO:48), and reverse (SEQ ID NO:49); IFNβ forward (SEQ ID NO:50), and reverse (SEQ ID NO:51); Iigp1 forward (SEQ ID NO:52), and reverse (SEQ ID NO:53); ISG15 forward (SEQ ID NO:54), and reverse (SEQ ID NO:55); Oasl2 forward (SEQ ID NO:56), and reverse (SEQ ID NO:57); Rsad2 forward (SEQ ID NO:58), and reverse (SEQ ID NO:59); USP18 forward (SEQ ID NO:60), and reverse (SEQ ID NO:61); VDAC1 forward (SEQ ID NO:62), and reverse (SEQ ID NO:63). GAPDH was used as an internal standard of mRNA expression, and the ratio of the target gene expression to GAPDH expression was calculated using LightCycler 96 Instrument software (Roche). The quality of real-time RT-PCR results was evaluated based on the melting temperature (Tm) of a DNA fragment and melting curve analysis.

EndoG−/− MEFs [2] = assay: Quantification of cytosolic mtDNA (cmtDNA) in EndoG−/− MEFs; format: cell-based, mouse; conditions: VBIT-4 (10 μM), real-time PCR
Protocol: MEFs were resuspended in 170 μl digitonin buffer containing 150 mM NaCl, 50 mM HEPES pH 7.4, and 25 μg/ml digitonin (EMD Millipore Corp). The homogenates were incubated on a rotator for 10 min at room temperature, followed by centrifugation at 16,000 g for 25 min at 4° C. A 1:20 dilution of the supernatant (cmtDNA) was used for real-time RT-PCR. The pellet was resuspended in 340 μl lysis buffer containing 5 mM EDTA and proteinase K (Qiagen) and incubated at 55° C. overnight. The digested pellet was diluted with water (1:20 to 1:100) and heated at 95° C. for 20 min to inactivate proteinase K, and the sample was used for real-time PCR. The primers used were as follow (5′-3′): D-loop1 forward (SEQ ID NO:64), and reverse (SEQ ID NO:65); D-loop2 forward (SEQ ID NO:66), and reverse (SEQ ID NO:67); D-loop3 forward (SEQ ID NO:68), and reverse (SEQ ID NO:69). The cmtDNA in the supernatant was normalized to the total mitochondrial DNA in the pellet for each sample.

Compound: O=C(CC(CO)N1CCN(c2ccc(OC(F)(F)F)cc2)CC1)Nc1ccc(Cl)cc1 (centres unmarked) [VBIT-4, N-(4-chlorophenyl)-4-hydroxy-3-(4-(4-(trifluoromethoxy)phenyl)-piperazin-1-yl)butanamide]
- ISG expression (EndoG−/− MEFs [1]): decreased
- cmtDNA (EndoG−/− MEFs [2]): decreased
